We go through 1 substance from patent publication US9359418B2, “Inhibitors of the T cell-specific alternative p38 activation pathway and methods of use” (The United States of America, as represented by the …, priority 2012, dated 2016).

One data set has as its system Naïve CD4+ T cells. Briefly: Th1 differentiation of naïve CD4+ T cells. The data set is classed as cell-based. Particulars: 2 μM; Th0 or Th1 polarizing conditions 3 days; relative to medium or (11R)-Ctrl. As for the experimental part:
FIGS. 5A-5D are a series of flow cytometry plots showing (11R)-71-85 inhibits Th1 differentiation. Naïve CD4^+ T cells were treated with either 2 μM of (11R)-71-85 or (11R)-Ctrl for two hours and after washing, cells were stimulated with anti-CD3 plus anti-CD28 in Th0 (neutral, FIG. 5A and FIG. 5C) or Th1 polarizing conditions (FIG. 5B and FIG. 5D) for 3 days. Cells were treated again with the same concentration of either medium (first column), (11R)-Ctrl (second column), or (11R)-71-85 (third column) for 2 hours and restimulated with PMA plus ionomycin in the presence of Golgi inhibitor for 4 hours. Expression of T bet and interferon (IFN)-γ (indicators of Th1 cells typical of a pro-inflammatory response) was analyzed by flow cytometry.
Additional studies were carried out to evaluate the effect of (11R)-71-85 on T helper (Th) cell differentiation. Expression of IFN-γ and T-bet was used as an indicator of Th1 cells typical of a pro-inflammatory response. Naïve CD4^+ T cells were treated with either medium or 2 μM of (11R)-71-85 or (11R)-Ctrl for two hours and after washing, cells were stimulated with anti-CD3 plus anti-CD28 in Th0 (neutral) or Th1 polarizing conditions for 3 days. […] Expression of T bet and IFNγ was analyzed by flow cytometry (FIGS. 5A-5D).

Another data set relates to T cells. The experiment in a line: T cell proliferation after anti-CD3 and anti-CD28 stimulation. The class given is cell-based. Particulars: 0.2, 0.5, 1.0, 2.0 or 4.0 μg; anti-CD3 and anti-CD28 for 2 days. As for the experimental part: FIG. 3 is a graph showing T cell proliferation in response to (11R)-71-85. T cells were purified from spleen and treated with different concentrations of (11R)-71-85 or control peptide (11R)-Ctrl. Cells were then washed and stimulated with anti-CD3 and anti-CD28 for 2 days and finally pulsed with 1 μCi [^3H]-thymidine 14 hours before harvesting. [^3H]-thymidine uptake was determined with a Wallac 1450 MicroBeta Liquid Scintillation Counter.
The ability of (11R)-71-85 to inhibit T cell proliferation and inflammatory cytokine production was also evaluated. T cells were purified from spleen and treated with different concentrations (0.2, 0.5, 1.0, 2.0 or 4.0 μg) of (11R)-71-85 or the control peptide (11R)-Ctrl. Cells were then washed and stimulated with anti-CD3 and anti-CD28 for 2 days and finally pulsed with 1 μCi [^3H]-thymidine 14 hours before harvesting. [^3H]-thymidine uptake was determined with a Wallac 1450 MicroBeta Liquid Scintillation Counter.

The subject of data set [1] is PANC02 tumors. The experiment in a line: PANC02 model, tumor vascularization (CD31 staining). The class given is in vivo. Particulars: 80 μg intra-tumor every other day for 2.5 weeks; compared with control treated mice. How it is done: FIG. 11 is a pair of images showing that intra-tumor injection of (11R)-71-85 reduces tumor vascularization. WT C57BL/6 mice were injected with 7.5×10^5 PANC02 cells and 16 days later were injected with 80 μg of either (11R)-71-85 or (11R)-Scrambled. Mice received intra-tumor injections every other day for 2.5 weeks. Twenty-four hours after the last injection, tumors were collected, fixed in formalin, and stained for the endothelial marker CD31, an indicator of tumor vascularization.
Tumor vascularization was also assessed in WT mice treated with (11R)-71-85. WT C57BL/6 mice were injected with 7.5×10^5 PANC02 cells. After 16 days, mice received intra-tumor injections of 80 μg of (11R)-71-85 or (11R)-Scrambled every other day for 2.5 weeks. Twenty-four hours after the last injection, tumors were collected, fixed in formalin, and stained for the endothelial marker CD31, an indicator for tumor vascularization.

In data set [2] the test system is PANC02 tumors. Briefly: PANC02 pancreatic tumor model, tumor growth after intra-tumor injection. The data set is classed as in vivo, mice. The note with it: relative to control animals. How it is done: FIGS. 9A-9C show injection of (11R)-71-85 stops the growth of established PANC02 tumors. WT C57BL/6 mice were injected with 7.5×10^5 PANC02 cells. After 16 days, mice received intra-tumor injections of (11R)-71-85 at the indicated amount or DMSO every other day. (FIG. 9A) Tumor volume from the start of injection (day 16) to day 42 in control mice and mice injected with 40 μg or 80 μg of (11R)-71-85. Sacrifice (sac.) of mice before day 42 is indicated. (FIG. 9B) weight and (FIG. 9C) appearance of the control (left) and treated (right) tumors on day 38.
The p38 MAPK has been implicated in the growth of some tumors that cause local inflammatory responses, such as pancreatic cancer. Therefore, (11R)-71-85 was tested in a pancreatic tumor model. WT C57BL/6 mice were injected with 7.5×10^5 PANC02 cells. After 16 days, mice received intra-tumor injections of 40 μg or 80 μg (11R)-71-85 or DMSO every other day. Tumor volume from the start of injection (day 16) to day 42 in control mice and mice injected with (11R)-71-85 or DMSO was determined (FIG. 9A). Weight (FIG. 9B) and appearance (FIG. 9C) of the control and treated tumors were assessed on day 38.

Another data set deals with CD4+ T cells. The experiment in a line: Cellular uptake of FITC conjugated peptides by purified CD4+ T cells. Particulars: FITC conjugated peptide, 2 hours at 37° C., flow cytometry. The data set is classed as cell-based. How it is done: FIG. 1 is a graph showing cellular uptake of (11R)-71-85 and (11R)-Ctrl. Purified CD4^+ T cells were treated with either FITC conjugated (11R)-71-85 or (11R)-Ctrl, or left untreated for 2 hours at 37° C. After incubation, cells were washed and analyzed by flow cytometry for FITC positivity.
To generate a cell-permeable form of the Gadd45α 71-85 peptide, 11 arginine residues were added to the N-terminus to produce a fusion protein referred to herein as (11R)-71-85. Cell-permeability of (11R)-71-85 was tested using purified CD4^+ T cells. (11R)-71-85 and a control peptide fused to 11 arginine residues (referred to as (11R)-Ctrl) were FITC conjugated. Purified CD4^+ T cells were treated with either FITC conjugated (11R)-71-85 or (11R)-Ctrl, or left untreated for 2 hours at 37° C. After incubation, cells were washed and analyzed by flow cytometry for FITC positivity.
A general note: Flow cytometry measures light scatter and fluorescence of single cells or particles in a stream.

Entries after “also recorded” stand apart in the source; their conditions may differ.

Consider “(11R)-71-85: fusion protein: 11 arginine residues added to the N-terminus of the Gadd45α 71-85 peptide (LQIHFTLIQAFCCEN; N-terminal 11 arginine; UniProt P24522 71-85, looked up, fragment)”, for which, in the data set on Naïve CD4+ T cells, the “expression of IFN-γ” value is listed as “reduced expression; also recorded: blunted” and the “expression of T-bet” value was “reduced expression; also recorded: blunted”. Besides, the “T cell proliferation ([3H]-thymidine uptake) in response to TCR stimulation” value with T cells is reported as “dose-dependent decrease”. For the same substance, in the data set with PANC02 tumors [1], the “CD31 staining (tumor vascularization)” value is “significant reduction”. The tumor volume entry in the data set with PANC02 tumors [2] (40 μg or 80 μg intra-tumor every other day from day 16 to day 42) is “significantly decreased”. The tumor weight result with PANC02 tumors [2] (intra-tumor injection every other day, day 38) is on record as “significantly decreased”. The “cellular uptake (FITC positivity)” value with CD4+ T cells is recorded as “taken up by the T cells”.
